{
  "source": "patent EP0097942A1",
  "about": "“Antiallergic pyrazine-bis(2-oxoglycine) compounds” (THE DOW CHEMICAL COMPANY, priority 1982, dated 1984)",
  "origin": "cited, not measured here",
  "system": "PCA reactions",
  "conditions": "general statement on reference drug",
  "note": "Where two headings read alike, the source gives them in different places.",
  "data": [
    {"smiles": "O=C(O)c1cc(=O)c2c(OCC(O)COc3cccc4oc(C(=O)O)cc(=O)c34)cccc2o1", "note": "[Disodium cromoglycate]", "values": [
      {"measurement": "activity in PCA test", "setting": "administered i.p.", "result": "active"},
      {"measurement": "activity in PCA test", "setting": "administered orally", "result": "not orally"}
    ]}
  ]
}
